What all share (experiment): Kinase inhibitor library screening, PrestoBlue cell viability, 1 or 10 μM, 72 h
One data set has as its system 501Mel cells (parental). Conditions: 72 h; for viability at 1 µM / viability at 10 µM: Homo sapiens; for viability at 1 µM: read-out: cell viability, 501Mel Parental, 1μΜ; for viability at 10 µM: read-out: cell viability, 501Mel Parental, 10μΜ. Put shortly:
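Normalised to untreated controls, viability percentages came from PrestoBlue measured on a microplate reader following 72 h incubation with drug. Each line was assayed at least twice.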

In data set [1] the test system is 501Mel-GP cells (Dabrafenib-resistant). Conditions: 72 h; for viability at 1 µM / viability at 10 µM: Homo sapiens; for viability at 1 µM: read-out: cell viability, 501Mel GP, 1μΜ; for viability at 10 µM: read-out: cell viability, 501Mel GP, 10μΜ.
Data set [2] concerns 501Mel-XP cells (Vemurafenib-resistant). Conditions: 72 h; for viability at 1 µM / viability at 10 µM: Homo sapiens; for viability at 1 µM: read-out: cell viability, 501Mel XP, 1μΜ; for viability at 10 µM: read-out: cell viability, 501Mel XP, 10μΜ.
Another data set deals with A375 cells (parental). Particulars: for viability at 1 µM / viability at 10 µM: Homo sapiens, A-375, 72 h; for viability at 1 µM: read-out: cell viability, A375 Parental, 1μΜ; for viability at 10 µM: read-out: cell viability, A375 Parental, 10μΜ.
In data set [3] the test system is A375-GP cells (Dabrafenib-resistant). Particulars: for viability at 1 µM / viability at 10 µM: Homo sapiens, A-375, 72 h; for viability at 1 µM: read-out: cell viability, A375 GP, 1μΜ; for viability at 10 µM: read-out: cell viability, A375 GP, 10μΜ.
The subject of data set [4] is A375-XP cells (Vemurafenib-resistant). Conditions: for viability at 1 µM / viability at 10 µM: Homo sapiens, A-375, 72 h; for viability at 1 µM: read-out: cell viability, A375 XP, 1μΜ; for viability at 10 µM: read-out: cell viability, A375 XP, 10μΜ.
The next data set deals with IGR37 cells (parental). Conditions: for viability at 1 µM / viability at 10 µM: Homo sapiens, IGR-37, 72 h; for viability at 1 µM: read-out: cell viability, IGR37 Parental, 1μΜ; for viability at 10 µM: read-out: cell viability, IGR37 Parental, 10μΜ.
Data set [5] has as its system IGR37-GP cells (Dabrafenib-resistant). Conditions: for viability at 1 µM / viability at 10 µM: Homo sapiens, IGR-37, 72 h; for viability at 1 µM: read-out: cell viability, IGR37 GP, 1μΜ; for viability at 10 µM: read-out: cell viability, IGR37 GP, 10μΜ.
The subject of data set [6] is IGR37-XP cells (Vemurafenib-resistant). Conditions: for viability at 1 µM / viability at 10 µM: Homo sapiens, IGR-37, 72 h; for viability at 1 µM: read-out: cell viability, IGR37 XP, 1μΜ; for viability at 10 µM: read-out: cell viability, IGR37 XP, 10μΜ.
Where [7] appears, read: IGR37 Parental, 1μΜ, 72 h, in %.
Where [8] appears, read: IGR37 Parental, 10μΜ, 72 h, in %.

With `CC(C)(O)CC(=O)NCCn1ccc2ncnc(Nc3ccc(Oc4cccc(C(F)(F)F)c4)c(Cl)c3)c21` [TAK-285], the viability at 1 µM in the data set on 501Mel cells (parental) stood at 101%; in data set [1], 104%; in data set [2], 94.8%; in the data set with A375 cells (parental), 102%; in data set [3], 103%; in [4] it was 108%. Besides, the viability at 1 µM in the data set on IGR37 cells (parental) was determined as 108%; in data set [5], 90.8%; in data set [6] it was 87.2%. Moreover, the viability at 10 µM is 99% with 501Mel cells (parental); 87.8% in data set [1]; 83.2% in data set [2]; 90.5% in the data set on A375 cells (parental); 83.1% in data set [3]; 87.7% in [4]. For the same molecule, the viability at 10 µM with IGR37 cells (parental) stood at 99.7%; in [5], 86%; in data set [6] it was 48.4%.
`O=C(c1ccc(/C=C/c2n[nH]c3ccccc23)cc1)N1CCNCC1` [KW 2449]: the viability at 1 µM in the data set on 501Mel cells (parental) is 97.3%; in data set [1] it was 103%; in data set [2] it was 96.9%; with A375 cells (parental) it was 87.5%; in data set [3] it was 93.7%; in data set [4] it was 94.8%. Besides, the viability at 1 µM in the data set with IGR37 cells (parental) turned out to be 99.6%; in [5] it was 96.4%; in data set [6], 104%. For the same molecule, the viability at 10 µM amounted to 57.7% in the data set on 501Mel cells (parental); 66.3% in [1]; 58% in [2]; 30.6% in the data set with A375 cells (parental); 28% in [3]; 40.9% in data set [4]. The values for the viability at 10 µM (with IGR37 cells (parental); in data set [5]; in [6]) were 71.9%, 45.2% and 18%, respectively.
For `CN1CCN(c2nc(C3=C(c4c[nH]c5ccccc45)C(=O)NC3=O)c3ccccc3n2)CC1` [Sotrastaurin (AEB071)], in the data set on 501Mel cells (parental) (501Mel Parental, 10μΜ, in %), the “Cell viability in kinase inhibitor library screening, 501Mel Parental, 10μΜ” value was determined as 95.7. The “Cell viability in kinase inhibitor library screening, 501Mel GP, 1μΜ” value in data set [1] (501Mel GP, 1μΜ, in %) is given as 105.7. In addition, the “Cell viability in kinase inhibitor library screening, 501Mel GP, 10μΜ” value in data set [1] (501Mel GP, 10μΜ, in %) is on record as 91.8. The “Cell viability in kinase inhibitor library screening, 501Mel XP, 1μΜ” value in data set [2] (501Mel XP, 1μΜ, in %) turned out to be 96.4. Also, the “Cell viability in kinase inhibitor library screening, 501Mel XP, 10μΜ” value in data set [2] (501Mel XP, 10μΜ, in %) came to 77.9. Besides, the “Cell viability in kinase inhibitor library screening, A375 Parental, 1μΜ” value in the data set on A375 cells (parental) (A375 Parental, 1μΜ, 72 h) was 108.3. In data set [3] (A375 GP, 10μΜ, 72 h), the “Cell viability in kinase inhibitor library screening, A375 GP, 10μΜ” value was 88.5. Moreover, the “Cell viability in kinase inhibitor library screening, A375 XP, 1μΜ” value in data set [4] (A375 XP, 1μΜ, 72 h) is given as 102.8. The “Cell viability in kinase inhibitor library screening, A375 XP, 10μΜ” value in data set [4] (A375 XP, 10μΜ, 72 h) was 96.9. For the same molecule, the “Cell viability in kinase inhibitor library screening, IGR37 Parental, 1μΜ” value in the data set with IGR37 cells (parental) (setting [7]) is recorded as 108.5. Moreover, in the data set with IGR37 cells (parental) (setting [8]), the “Cell viability in kinase inhibitor library screening, IGR37 Parental, 10μΜ” value was determined as 95.3. For the same molecule, the Cell viability in kinase inhibitor library screening, IGR37 GP, 10μΜ in [5] (IGR37 GP, 10μΜ, 72 h) came out at 89.1%. Further, the “Cell viability in kinase inhibitor library screening, IGR37 GP, 1μΜ” value in [5] (IGR37 GP, 1μΜ, 72 h, in %) came out at 96.8. This molecule also showed a Cell viability in kinase inhibitor library screening, IGR37 XP, 10μΜ in data set [6] (IGR37 XP, 10μΜ, 72 h) of 78.1%.
For the molecule `O=C(NOCC(O)CO)c1cc(Br)c(F)c(F)c1Nc1ccc(I)cc1F` (stereo not drawn) [PD318088], the “cell viability, 501Mel Parental, 1μΜ” value in the data set on 501Mel cells (parental) (501Mel Parental, 1μΜ, in %) is 54.5. In the data set on 501Mel cells (parental) (501Mel Parental, 10μΜ, in %), the “cell viability, 501Mel Parental, 10μΜ” value was 54.4. Besides, the “cell viability, 501Mel GP, 1μΜ” value in [1] (501Mel GP, 1μΜ, in %) is recorded as 99.4. The “cell viability, 501Mel GP, 10μΜ” value in [1] (501Mel GP, 10μΜ, in %) came to 79.2. Further, the “cell viability, 501Mel XP, 1μΜ” value in data set [2] (501Mel XP, 1μΜ, in %) is 84.8. Also, the “cell viability, 501Mel XP, 10μΜ” value in data set [2] (501Mel XP, 10μΜ, in %) is recorded as 57.7. The “cell viability, A375 Parental, 1μΜ” value with A375 cells (parental) (A375 Parental, 1μΜ, 72 h, in %) came to 19.2. For the same molecule, the “cell viability, A375 Parental, 10μΜ” value in the data set on A375 cells (parental) (A375 Parental, 10μΜ, 72 h, in %) is recorded as 16.4. In addition, in data set [3] (A375 GP, 1μΜ, 72 h, in %), the “cell viability, A375 GP, 1μΜ” value was 31.6. In [3] (A375 GP, 10μΜ, 72 h, in %), the “cell viability, A375 GP, 10μΜ” value was determined as 15.6. Besides, the “cell viability, A375 XP, 1μΜ” value in data set [4] (A375 XP, 1μΜ, 72 h, in %) is reported as 36.7. Also, the “cell viability, A375 XP, 10μΜ” value in data set [4] (A375 XP, 10μΜ, 72 h, in %) stood at 11.2. Besides, in the data set on IGR37 cells (parental) (setting [7]), the “cell viability, IGR37 Parental, 1μΜ” value stood at 37.8. Also, in the data set on IGR37 cells (parental) (setting [8]), the “cell viability, IGR37 Parental, 10μΜ” value is given as 36.8. For the same molecule, the cell viability, IGR37 GP, 10μΜ in data set [5] (IGR37 GP, 10μΜ, 72 h) was 66.4%. The “cell viability, IGR37 GP, 1μΜ” value in data set [5] (IGR37 GP, 1μΜ, 72 h, in %) is given as 76.0. In data set [6] (IGR37 XP, 10μΜ, 72 h), this molecule had a cell viability, IGR37 XP, 10μΜ of 22.8%. Moreover, in [6] (IGR37 XP, 1μΜ, 72 h, in %), the “cell viability, IGR37 XP, 1μΜ” value was 63.3.
As for `CC(C)(C)c1cc(NC(=O)Nc2ccc(-c3cn4c(n3)sc3cc(OCCN5CCOCC5)ccc34)cc2)no1` [Quizartinib (AC220)], the viability at 1 µM with 501Mel cells (parental) was 95.1%; in data set [1], 109%; in [2] it was 94.6%; in the data set with A375 cells (parental), 104%; in data set [3], 99.4%; in [4], 108%. The viability at 1 µM is 97.3% in the data set on IGR37 cells (parental), 67.8% in data set [5] and 43.9% in data set [6]. The viability at 10 µM stood at 89.6% with 501Mel cells (parental); 93% in data set [1]; 80.5% in [2]; 96.3% in the data set with A375 cells (parental); 88.8% in data set [3]; 96.3% in [4]. In addition, the viability at 10 µM was determined as 102% with IGR37 cells (parental), 28.8% in [5] and 7.2% in data set [6].
As for `O=C1NC(=O)C(=Cc2ccc(-c3ccc(F)cc3)o2)S1` (stereo in doubt) [CAY10505], in the data set with 501Mel cells (parental) (501Mel Parental, 1μΜ, in %), the “Cell viability in kinase inhibitor library screening, 501Mel Parental, 1μΜ” value is recorded as 99.8. Moreover, in the data set on 501Mel cells (parental) (501Mel Parental, 10μΜ, in %), the “Cell viability in kinase inhibitor library screening, 501Mel Parental, 10μΜ” value came out at 97.3. Moreover, the “Cell viability in kinase inhibitor library screening, 501Mel GP, 1μΜ” value in data set [1] (501Mel GP, 1μΜ, in %) is 96.4. In addition, in data set [1] (501Mel GP, 10μΜ, in %), the “Cell viability in kinase inhibitor library screening, 501Mel GP, 10μΜ” value was determined as 89.6. Besides, the “Cell viability in kinase inhibitor library screening, 501Mel XP, 1μΜ” value in [2] (501Mel XP, 1μΜ, in %) was determined as 99.8. The “Cell viability in kinase inhibitor library screening, 501Mel XP, 10μΜ” value in data set [2] (501Mel XP, 10μΜ, in %) worked out at 90.3. The “Cell viability in kinase inhibitor library screening, A375 Parental, 10μΜ” value in the data set with A375 cells (parental) (A375 Parental, 10μΜ, 72 h) turned out to be 93.9. Further, in the data set with A375 cells (parental) (A375 Parental, 1μΜ, 72 h), the “Cell viability in kinase inhibitor library screening, A375 Parental, 1μΜ” value came out at 105.4. In data set [3] (A375 GP, 1μΜ, 72 h), the “Cell viability in kinase inhibitor library screening, A375 GP, 1μΜ” value turned out to be 99.9. In addition, the “Cell viability in kinase inhibitor library screening, A375 XP, 1μΜ” value in data set [4] (A375 XP, 1μΜ, 72 h) came to 107.0. The “Cell viability in kinase inhibitor library screening, A375 XP, 10μΜ” value in [4] (A375 XP, 10μΜ, 72 h) is 110.5. Besides, the “Cell viability in kinase inhibitor library screening, IGR37 Parental, 1μΜ” value with IGR37 cells (parental) (setting [7]) came to 103.7. Further, in the data set with IGR37 cells (parental) (setting [8]), the “Cell viability in kinase inhibitor library screening, IGR37 Parental, 10μΜ” value was found to be 103.3. Also, the Cell viability in kinase inhibitor library screening, IGR37 GP, 10μΜ in data set [5] (IGR37 GP, 10μΜ, 72 h) is 94.4%. For the same molecule, the “Cell viability in kinase inhibitor library screening, IGR37 GP, 1μΜ” value in data set [5] (IGR37 GP, 1μΜ, 72 h, in %) is listed as 98.2. In addition, the Cell viability in kinase inhibitor library screening, IGR37 XP, 10μΜ in data set [6] (IGR37 XP, 10μΜ, 72 h) came out at 77.3%.

The record behind these values is publication PMC6364417, “Kinase inhibitor library screening identifies synergistic drug combinations effective in sensitive and resistant melanoma cells” (Journal of Experimental & Clinical Cancer Research : CR, 2019).
